In brackets after ≈: the same amount, converted by molar mass. Numbered stars: 1 amine (or outer) side, 2 acyl side, 3 side chain; on linkers, the order of the positions; unused ones are H or OH. Square brackets hold non-standard residues; d marks the D form. Primed or numbered codes have the meaning given here. Peptide text beside a SMILES is read from it. * marks the point of attachment. δOrn(α-TMG) = CN(C)C(=N[C@@H](CCCN[*:1])C(=O)[*:2])N(C)C; Guan″ = guanidino group at the N-terminus, N=C(N)*; Hyp = O=C(O)[C@@H]1C[C@@H](O)CN1; Tle = CC(C)(C)[C@H](N)C(=O)O; Orn = NCCC[C@H](N)C(=O)O
Columns and labels:
[1] = test system: Escherichia coli strain BL21AI; test: Minimum inhibitory concentration in 1% TSB; type: cell-based; conditions: for MIC in TSB: E. coli BL21AI, 1% TSB, 20 hours at 37° C.
Method: To that end, the peptides were dissolved in water and diluted in a two-fold dilution series with 1% aqueous soybean medium (TSB) in sterile 96-well plates (Greiner Bio-One GmbH) from 128 μg/ml in twelve dilution steps to 62.5 ng/ml. Overnight cultures of Escherichia coli strain BL21AI were adjusted with 1% TSB to about […] colony forming units per ml. In each case 50 μl of peptide solution per well were then mixed with in each case 50 μl of the bacteria solution, in order to achieve a starting concentration of 4×10^5 bacteria per well. After incubation for 20 hours at 37° C., the absorption at 595 nm was determined (microplate reader, TECAN Trading AG).

mouse serum (100%) = conditions: 37° C., up to 6 hours

| cleaved bond (mouse serum (100%)) | Molecule | also measured |
| --- | --- | --- |
|  | CC[C@H](C)[C@H](NC(=O)[C@H](Cc1ccc(O)cc1)NC(=O)[C@@H](NC(=O)[C@@H]1CCCN1C(=O)[C@H](CCCNC(=N)N)NC(=O)[C@H](CC(N)=O)NC(=O)[C@H](CC(N)=O)NC(=O)[C@H](CCCNC(=O)CNC(=O)[C@@H](N)CO)N=C(N(C)C)N(C)C)C(C)C)C(=O)N1CCC[C@H]1C(=O)N[C@@H](CCCNC(=N)N)C(=O)N1CCC[C@H]1C(=O)N[C@@H](CCCNC(=N)N)C(=O)N1CCC[C@H]1C(=O)N1CCC[C@H]1C(=O)N[C@@H](Cc1c[nH]cn1)C(=O)N1CCC[C@H]1C(=O)N[C@@H](CCCNC(=N)N)C(=O)N[C@@H](CC(C)C)C(=O)O [Api 137 (SG)] (H-SG[δOrn(α-TMG)]NNRPVYIPRPRPPHPRL-OH) | MIC in TSB [1]: 0.2 µM (≈ 0.487 µg/mL); Effect of peptide linker or remaining linker residues on the MIC ([1]; compared with the unmodified peptide): does not increase the MIC or increases it only insignificantly |
|  | CC(C)C[C@H](NC(=O)[C@H](Cc1ccc(O)cc1)NC(=O)[C@@H]1CCCN1C(=O)[C@@H]1CCCN1C(=O)[C@H](CCCCN)NC(=O)[C@H](CC(=O)O)NC(=O)[C@@H](N)C(C)C)C(=O)N1CCC[C@H]1C(=O)N[C@@H](CCCNC(=N)N)C(=O)N1CCC[C@H]1C(=O)N[C@@H](CCCNC(=N)N)C(=O)N1CCC[C@H]1C(=O)N1C[C@H](O)C[C@H]1C(=O)N[C@@H](CCCNC(=N)N)C(=O)N1C[C@H](O)C[C@H]1C(=O)N[C@H](C(=O)N[C@@H](Cc1ccc(O)cc1)C(=O)N[C@@H](CC(N)=O)C(=O)N[C@@H](CCCN)C(N)=O)C(C)(C)C [Onc 110] (H-VDKPPYLPRPRP[Hyp]R[Hyp][Tle]YN[Orn]-NH2) | MIC in TSB [1]: 6.9 µM (≈ 16 µg/mL) |
|  | Guan-O(sPEG^5000-GARSG)NNRPVYIPRPRPPHPRL-OH ({Guan″}-[Orn]NNRPVYIPRPRPPHPRL-OH; not fully specified (residue 1)) [Api 137 (sPEG^5000-GARSG)] | MIC in TSB [1]: 3.7 µM |
|  | Guan-O(sPEG^20000-GARSG)NNRPVYIPRPRPPHPRL-OH ({Guan″}-[Orn]NNRPVYIPRPRPPHPRL-OH; not fully specified (residue 1)) [Api 137 (sPEG^20000-GARSG)] | MIC in TSB [1]: 10.2 µM |
| R-S | Guan-ONO(sPEG^750-GAARSG)RPVYIPRPRPPHPRL-OH |  |
| R-S | Guan-ONO(sPEG^750-GARSG)RPVYIPRPRPPHPRL-OH |  |
| R-S | Guan-ONO(sPEG^750-GRSG)RPVYIPRPRPPHPRL-OH |  |
| R-S | Guan-ONO(tPEG^750-GAARSG)RPVYIPRPRPPHPRL-OH |  |
| R-S | Guan-ONO(tPEG^750-GARSG)RPVYIPRPRPPHPRL-OH |  |
| R-S | Guan-ONO(tPEG^750-GRSG)RPVYIPRPRPPHPRL-OH |  |
| R-S | Guan-ONO(tPEG^5000-GAARSG)RPVYIPRPRPPHPRL-OH |  |
| R-S | Guan-ONO(tPEG^5000-GARSG)RPVYIPRPRPPHPRL-OH |  |
| R-S | Guan-ONO(tPEG^5000-GRSG)RPVYIPRPRPPHPRL-OH |  |
| R-S | Guan-OO(sPEG^750-GAARSG)NRPVYIPRPRPPHPRL-OH |  |
| R-S | Guan-OO(sPEG^750-GARSG)NRPVYIPRPRPPHPRL-OH |  |
| R-S | Guan-OO(sPEG^750-GRSG)NRPVYIPRPRPPHPRL-OH |  |
| R-S | Guan-OO(tPEG^750-GAARSG)NRPVYIPRPRPPHPRL-OH |  |
| R-S | Guan-OO(tPEG^750-GARSG)NRPVYIPRPRPPHPRL-OH |  |
| R-S | Guan-OO(tPEG^750-GRSG)NRPVYIPRPRPPHPRL-OH |  |
| R-S | Guan-OO(tPEG^5000-GAARSG)NRPVYIPRPRPPHPRL-OH |  |
| R-S | Guan-OO(tPEG^5000-GARSG)NRPVYIPRPRPPHPRL-OH |  |
| R-S | Guan-OO(tPEG^5000-GRSG)NRPVYIPRPRPPHPRL-OH |  |
| R-V | sPEG^750-GAR-VDKPPYLPRPRPHypRHypTleYNO-NH2 |  |
| R-V | sPEG^750-GAR-VDKPPYLPRPRPPROIYNO-NH2 |  |
| R-V | tPEG^750-GAR-VDKPPYLPRPRPHypRHypTleYNO-NH2 |  |
| R-V | tPEG^750-GAR-VDKPPYLPRPRPPROIYNO-NH2 |  |

From patent US9856298B2 (priority 2011, dated 2018)
